Test results: ChEMBL document CHEMBL1201862, “PubChem BioAssay data set” (2004)
Activity calls are given as the source filed them.

Columns and labels:
[1] = biological target: T1, Serine/threonine-protein phosphatase (Candida dubliniensis (strain CD36 / CBS 7987 / NCPF 3949 / NRRLY-17841) (Yeast), UniProt B9W6M3); assay: blockers of CaCl2-induced CDRE-lacZ signaling – S. cerevisiae, luminescence, secondary, dose response (AID 2388); format: functional, cell-based;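 also: yeast reporter cells carrying a calcineurin-responsive lacZ construct stimulated with calcium chloride; luminescent beta-galactosidase reporter signal in whole cells rather than isolated phosphatase activity; potency for inhibition where a drop in reporter signal means calcineurin blockade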
T1 sequence (B9W6M3 whole entry): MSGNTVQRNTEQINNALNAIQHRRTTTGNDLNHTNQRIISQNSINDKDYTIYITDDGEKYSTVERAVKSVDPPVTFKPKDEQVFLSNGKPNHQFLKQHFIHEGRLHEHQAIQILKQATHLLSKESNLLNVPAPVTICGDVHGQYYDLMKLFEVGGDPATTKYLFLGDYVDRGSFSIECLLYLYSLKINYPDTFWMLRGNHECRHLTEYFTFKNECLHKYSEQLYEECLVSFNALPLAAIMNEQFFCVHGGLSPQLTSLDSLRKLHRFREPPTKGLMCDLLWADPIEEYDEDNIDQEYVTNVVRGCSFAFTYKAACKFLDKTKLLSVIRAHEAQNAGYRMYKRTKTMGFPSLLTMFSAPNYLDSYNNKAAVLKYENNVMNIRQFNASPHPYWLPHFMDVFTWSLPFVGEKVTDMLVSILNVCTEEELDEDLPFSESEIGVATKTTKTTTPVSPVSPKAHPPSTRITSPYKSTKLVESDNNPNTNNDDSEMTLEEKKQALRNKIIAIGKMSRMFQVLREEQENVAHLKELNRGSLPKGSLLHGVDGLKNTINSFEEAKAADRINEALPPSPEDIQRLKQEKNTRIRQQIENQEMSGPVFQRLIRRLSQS

[2] = system: INS1; assay: INS-1E survival protection against cytokine death – cell-based, luminescence, retest, dose response (AID 449756); format: functional; conditions: Rattus norvegicus;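 also: cell death triggered by IL-1 beta plus TNF-alpha plus IFN-gamma mixture; protective hits raise ATP signal compared with cytokine alone wells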
[3] = biological target: Photoreceptor-specific nuclear receptor (Homo sapiens, UniProt Q9Y5X4); format: functional, cell-based;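 also: CHO-S cells with Gal4-NCOR and VP16-NR2E3 two-hybrid luciferase reporter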
[4] = cells; format: functional, cell-based
[5] = fluconazole-exposed Candida albicans growth modulators – fluorescence, retest, confirmation (AID 2467); format: functional, cell-based
[6] = cells; format: functional, cell-based; remark: listed apart in the source
[7] = biological target: ATP-dependent molecular chaperone HSP82 (Candida albicans (strain WO-1) (Yeast), UniProt C4YTQ8); assay: steroid-induced GRE reporter decrease in yeast – S. cerevisiae, luminescence, Hsp90 inhibitor project, dose response (AID 2400); format: functional, cell-based;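 also: beta-galactosidase luminescence from glucocorticoid response element reporter as proxy for Hsp90 function; inhibitor potency where signal loss means Hsp90 inhibition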
[8] = NIH-3T3 fibroblast cytotoxicity, dose response, cytotoxicity control, cell-based, fluorescence, Alamar Blue, secondary assay (AID 2327); format: functional;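 also: NIH-3T3 mouse fibroblasts cultured with fluconazole at 8 µg/mL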
[9] = Trypanosoma cruzi growth suppression in host cells – NIH3T3 host cells, beta-gal luminescence, confirmation (AID 2044); format: functional, cell-based;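 also: intracellular parasites grown in NIH/3T3 mouse fibroblasts as host cells; luminescent beta-galactosidase reporter signal from transgenic T. cruzi replicating inside host cells; inhibitors lower the luminescence signal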
[10] = NIH3T3 cell viability loss – ATP luminescence, mouse fibroblasts, counter-screen, dose response (AID 2010); format: functional, cell-based;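 also: cells exposed to compound for about 90 hours before reading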
[11] = system: Vero; assay: viability loss in Vero cells – cell-based, plate reader, cherry-pick samples, cytotoxicity control, dose response (AID 687020); format: functional; conditions: Chlorocebus sabaeus
[12] = blockers of HIV-1 ZM109 envelope-driven cell-cell fusion – HeLa effector, CEM target cells, luciferase, cherry-pick, dose response (AID 652058); format: functional, cell-based;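 also: luciferase signal from HIV-1 Env mediated cell-cell fusion of effector and target cells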
[13] = off-target signal loss in HeLa-CEM21 co-culture – HeLa F-luc CTL cells, cherry-picked, counter-screen for HIV-1 Env fusion inhibitor project, dose response (AID 652040); format: functional, cell-based;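 also: potency for signal decrease marking cytotoxic or nonspecific inhibition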
[14] = biological target: Luciferin 4-monooxygenase (Photinus pyralis, UniProt P08659); assay: inhibition of purified Photinus pyralis luciferase – biochemical, luminescence, dose response (AID 1891)
[15] = blockers of HIV-1 envelope-mediated cell-cell fusion – cherry-pick, dose response (AID 652057); format: functional, cell-based
[16] = biological target: Cytochrome P450 2D6 (Homo sapiens, UniProt P10635);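 also: CYP2D6 member of a cytochrome P450 panel assay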
[17] = HIV-1 AD8 envelope cell-cell fusion blockers – cherry-pick, dose response (AID 652062); format: functional, cell-based;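 also: luciferase signal from cell-cell fusion driven by HIV-1 clade B AD8 Env; potency is for inhibitors of fusion seen as a drop in luminescence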
[18] = Luminescence Cell-Based Dose Confirmation HTS to Identify Inhibitors of Platelet Dense Granule Release. [Related pubchem assays: 1663 (Primary HTS), 1678 (Summary of Project)]; format: functional
[19] = system: HEK293; assay: cells; conditions: Homo sapiens
[20] = system: HEK293; assay: cells; conditions: Homo sapiens; remark: listed apart in the source
[21] = biological target: Beta-lactamase (Pseudomonas aeruginosa, UniProt Q79MP6);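 also: biochemical dose-response test of metallo-beta-lactamase enzyme inhibition, read out by epi-absorbance; purified recombinant IMP-1 metallo-beta-lactamase with nitrocefin as substrate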
[22] = biological target: Beta-lactamase (Salmonella choleraesuis (strain SC-B67), UniProt Q5J463)
[23] = biological target: Troponin, cardiac muscle (Homo sapiens, UniProt P19429+P45379+P63316); assay: Fluorescence-based biochemical high throughput dose response assay for activators of the calcium sensitivity of cardiac Regulated Thin Filaments (RTF). [Related pubchem assays (depositor defined):AID493008, AID493018, AID504382, AID504383]; format: protein-complex assay
[24] = biological target: T2, DNA repair and recombination protein RAD54-like (Homo sapiens, UniProt Q92698); assay: RAD54 Holliday junction migration blockers – biochemical, fluorescence, cherry-picked samples, dose series, confirmation (AID 651657); format: functional
T2 sequence (Q92698 whole entry): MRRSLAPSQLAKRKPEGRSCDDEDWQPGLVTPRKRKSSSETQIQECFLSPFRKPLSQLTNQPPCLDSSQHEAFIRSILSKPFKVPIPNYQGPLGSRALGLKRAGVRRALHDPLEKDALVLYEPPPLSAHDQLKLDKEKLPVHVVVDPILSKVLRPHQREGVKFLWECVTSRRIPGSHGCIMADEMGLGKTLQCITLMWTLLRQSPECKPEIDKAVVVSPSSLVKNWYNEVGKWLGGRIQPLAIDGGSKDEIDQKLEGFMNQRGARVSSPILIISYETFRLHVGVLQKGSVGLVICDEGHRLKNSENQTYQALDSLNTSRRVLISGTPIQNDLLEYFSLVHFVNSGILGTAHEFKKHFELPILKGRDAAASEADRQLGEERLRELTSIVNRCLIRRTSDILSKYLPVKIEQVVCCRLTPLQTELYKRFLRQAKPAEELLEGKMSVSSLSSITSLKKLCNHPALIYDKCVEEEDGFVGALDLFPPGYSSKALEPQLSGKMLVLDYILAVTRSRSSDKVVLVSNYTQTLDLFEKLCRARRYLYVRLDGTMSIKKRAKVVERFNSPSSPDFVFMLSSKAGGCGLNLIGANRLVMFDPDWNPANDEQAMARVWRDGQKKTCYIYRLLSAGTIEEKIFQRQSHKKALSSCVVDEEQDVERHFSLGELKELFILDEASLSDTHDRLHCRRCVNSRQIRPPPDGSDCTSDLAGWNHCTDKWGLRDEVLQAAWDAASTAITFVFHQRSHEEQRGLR

[25] = biological target: DNA repair protein RAD52 homolog (Homo sapiens, UniProt P43351); format: functional, biochemical
[26] = biological target: T3, Scavenger receptor class B member 1 (Mus musculus, UniProt Q61009); assay: blockers of DiI-HDL lipid transfer via SR-BI – cell-based, ldlA[mSR-BI] CHO, DiI fluorescence, dry powder, set 10, dose response (AID 624029); format: functional
T3 sequence (Q61009 whole entry): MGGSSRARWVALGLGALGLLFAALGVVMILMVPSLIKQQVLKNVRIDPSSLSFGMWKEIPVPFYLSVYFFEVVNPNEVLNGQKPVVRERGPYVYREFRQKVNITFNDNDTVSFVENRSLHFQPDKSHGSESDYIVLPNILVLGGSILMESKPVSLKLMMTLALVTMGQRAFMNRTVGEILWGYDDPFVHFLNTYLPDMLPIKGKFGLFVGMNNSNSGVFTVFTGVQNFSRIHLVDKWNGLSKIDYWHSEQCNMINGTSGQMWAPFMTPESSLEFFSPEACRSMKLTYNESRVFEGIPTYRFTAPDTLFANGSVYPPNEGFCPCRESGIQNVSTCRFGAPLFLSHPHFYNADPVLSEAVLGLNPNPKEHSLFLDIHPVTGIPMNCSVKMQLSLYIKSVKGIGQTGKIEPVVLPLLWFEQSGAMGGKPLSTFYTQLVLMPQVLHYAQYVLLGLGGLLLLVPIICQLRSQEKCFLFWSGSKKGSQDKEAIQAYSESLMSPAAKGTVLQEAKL

Chain of Cytochrome P450 2D6 (P10635 whole entry, the tested form may be a part): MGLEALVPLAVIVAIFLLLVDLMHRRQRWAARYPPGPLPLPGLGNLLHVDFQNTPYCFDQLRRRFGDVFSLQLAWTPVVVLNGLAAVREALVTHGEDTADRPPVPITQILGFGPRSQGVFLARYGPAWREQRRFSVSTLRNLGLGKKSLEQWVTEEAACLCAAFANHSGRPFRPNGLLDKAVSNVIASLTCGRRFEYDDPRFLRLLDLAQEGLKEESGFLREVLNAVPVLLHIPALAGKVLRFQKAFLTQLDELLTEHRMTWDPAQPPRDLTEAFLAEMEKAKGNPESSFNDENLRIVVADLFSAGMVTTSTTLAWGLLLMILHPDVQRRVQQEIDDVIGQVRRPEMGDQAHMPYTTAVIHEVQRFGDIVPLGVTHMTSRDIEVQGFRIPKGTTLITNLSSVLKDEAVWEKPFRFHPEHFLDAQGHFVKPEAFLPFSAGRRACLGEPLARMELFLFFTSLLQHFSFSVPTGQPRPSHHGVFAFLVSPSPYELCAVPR
Chain of Luciferin 4-monooxygenase (P08659 whole entry, the tested form may be a part): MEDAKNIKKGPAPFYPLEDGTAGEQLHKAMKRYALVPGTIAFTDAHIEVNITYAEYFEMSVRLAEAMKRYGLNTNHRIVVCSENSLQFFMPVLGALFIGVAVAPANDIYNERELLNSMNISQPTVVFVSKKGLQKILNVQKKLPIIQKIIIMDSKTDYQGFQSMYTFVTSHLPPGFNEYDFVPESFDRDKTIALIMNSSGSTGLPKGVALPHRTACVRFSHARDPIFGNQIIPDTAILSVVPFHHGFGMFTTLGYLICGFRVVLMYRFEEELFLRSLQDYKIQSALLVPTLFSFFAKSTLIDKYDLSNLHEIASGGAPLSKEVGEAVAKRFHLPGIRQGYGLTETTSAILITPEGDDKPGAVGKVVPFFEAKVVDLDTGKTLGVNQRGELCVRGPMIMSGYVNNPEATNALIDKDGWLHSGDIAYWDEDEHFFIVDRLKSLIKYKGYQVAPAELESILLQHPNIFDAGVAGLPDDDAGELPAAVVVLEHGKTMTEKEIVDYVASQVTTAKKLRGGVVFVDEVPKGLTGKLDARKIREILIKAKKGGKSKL
Chain of ATP-dependent molecular chaperone HSP82 (C4YTQ8 whole entry): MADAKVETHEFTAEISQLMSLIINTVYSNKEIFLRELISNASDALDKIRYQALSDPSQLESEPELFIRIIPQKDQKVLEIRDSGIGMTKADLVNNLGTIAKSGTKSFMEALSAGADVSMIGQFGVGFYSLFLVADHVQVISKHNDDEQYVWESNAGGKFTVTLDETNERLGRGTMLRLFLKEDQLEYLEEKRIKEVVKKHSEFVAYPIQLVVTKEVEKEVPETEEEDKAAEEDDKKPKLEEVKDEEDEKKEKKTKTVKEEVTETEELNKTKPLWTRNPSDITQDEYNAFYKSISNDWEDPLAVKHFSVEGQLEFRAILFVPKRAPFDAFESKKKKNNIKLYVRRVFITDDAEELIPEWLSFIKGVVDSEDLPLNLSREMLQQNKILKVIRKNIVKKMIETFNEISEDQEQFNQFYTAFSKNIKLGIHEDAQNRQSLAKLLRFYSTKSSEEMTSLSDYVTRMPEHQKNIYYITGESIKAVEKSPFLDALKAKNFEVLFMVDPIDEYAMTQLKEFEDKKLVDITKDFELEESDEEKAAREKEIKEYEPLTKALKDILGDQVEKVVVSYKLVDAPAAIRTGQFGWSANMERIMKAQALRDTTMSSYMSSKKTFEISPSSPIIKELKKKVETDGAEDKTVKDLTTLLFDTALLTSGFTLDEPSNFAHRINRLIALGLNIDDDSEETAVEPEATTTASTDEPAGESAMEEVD
Chain of Beta-lactamase (Pseudomonas aeruginosa, UniProt Q79MP6) (Q79MP6 whole entry): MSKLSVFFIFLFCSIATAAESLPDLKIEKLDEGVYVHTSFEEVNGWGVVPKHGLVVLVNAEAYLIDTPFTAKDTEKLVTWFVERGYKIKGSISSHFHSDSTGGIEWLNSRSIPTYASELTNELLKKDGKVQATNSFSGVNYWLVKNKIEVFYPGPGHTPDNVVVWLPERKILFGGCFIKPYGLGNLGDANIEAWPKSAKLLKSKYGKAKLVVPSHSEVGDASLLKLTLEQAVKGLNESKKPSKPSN
Chain of Beta-lactamase (Salmonella choleraesuis (strain SC-B67), UniProt Q5J463) (Q5J463 whole entry): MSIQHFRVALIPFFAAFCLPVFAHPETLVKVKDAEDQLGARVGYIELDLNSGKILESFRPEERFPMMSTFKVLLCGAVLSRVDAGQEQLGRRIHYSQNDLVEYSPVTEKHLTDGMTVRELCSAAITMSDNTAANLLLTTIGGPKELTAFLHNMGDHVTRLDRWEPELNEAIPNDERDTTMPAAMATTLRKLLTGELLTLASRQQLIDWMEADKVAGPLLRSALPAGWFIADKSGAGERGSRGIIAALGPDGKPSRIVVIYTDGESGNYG
Chain of DNA repair protein RAD52 homolog (P43351 whole entry): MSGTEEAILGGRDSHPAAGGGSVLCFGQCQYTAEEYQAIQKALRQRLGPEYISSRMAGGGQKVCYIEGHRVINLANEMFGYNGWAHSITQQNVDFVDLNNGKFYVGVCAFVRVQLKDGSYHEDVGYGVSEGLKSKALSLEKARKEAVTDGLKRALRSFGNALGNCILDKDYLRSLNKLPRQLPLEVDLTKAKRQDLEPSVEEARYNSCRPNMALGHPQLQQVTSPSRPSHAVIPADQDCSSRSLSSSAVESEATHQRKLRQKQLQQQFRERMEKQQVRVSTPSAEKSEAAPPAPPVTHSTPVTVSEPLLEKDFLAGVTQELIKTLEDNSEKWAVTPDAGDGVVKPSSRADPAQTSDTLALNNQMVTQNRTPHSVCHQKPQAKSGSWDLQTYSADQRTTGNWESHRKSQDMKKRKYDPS
Chain of Photoreceptor-specific nuclear receptor (Q9Y5X4 whole entry, the tested form may be a part): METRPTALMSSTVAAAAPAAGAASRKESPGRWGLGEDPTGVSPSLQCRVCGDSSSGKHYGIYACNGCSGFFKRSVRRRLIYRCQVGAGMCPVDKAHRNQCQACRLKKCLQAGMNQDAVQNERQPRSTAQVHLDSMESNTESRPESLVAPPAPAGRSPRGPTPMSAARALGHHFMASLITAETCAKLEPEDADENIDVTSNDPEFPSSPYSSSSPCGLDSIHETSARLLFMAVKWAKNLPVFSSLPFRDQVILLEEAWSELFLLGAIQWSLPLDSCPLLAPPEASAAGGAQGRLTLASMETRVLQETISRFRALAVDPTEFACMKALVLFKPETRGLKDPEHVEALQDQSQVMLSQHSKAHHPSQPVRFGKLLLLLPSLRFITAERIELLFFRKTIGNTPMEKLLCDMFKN

CC(=O)NC(c1cccs1)c1cc([N+](=O)[O-])c2cccnc2c1O (stereo unspecified)
EC50 [1]: > 180 µM (inactive) | AC50 [2]: 4.94 µM (active) | IC50 [3]: 4.71 µM (active) | EC50 [4]: > 350 µM (not active) | EC50 [5]: 757 nM (active) | EC50 [6]: 51.5 µM (active) | EC50 [7]: > 150 µM (inactive) | EC50 [8]: 46.7 µM (inconclusive)

COc1ccc2ccccc2c1-c1sc(Nc2ccccc2)n[n+]1-c1ccc(F)cc1
EC50 [9]: 707 nM (active) | EC50 [10]: > 30 µM (not active) | AC50 [11]: 31.6 µM (active)

Cc1ccc(N2C(=O)CC(c3ccsc3)C3=C2CC(C)(C)CC3=O)cc1 (stereo unspecified)
AC50 [12]: 3.55 µM (active) | AC50 [13]: 5.07 µM (active) | EC50 [14]: > 112 µM (not active) | AC50 [15]: 3.24 µM (active) | AC50 [16]: 39.8 µM (inconclusive) | AC50 [17]: 18.9 µM (active) | EC50 [18]: > 112 µM (not active)

COc1ccc(NC(=O)C2CCCN2S(=O)(=O)c2ccc3c(c2)CCC(=O)N3)cc1Cl (stereo unspecified)
AC50 [12]: 3.18 µM (active) | AC50 [13]: 14.8 µM (active) | EC50 [19]: > 59.6 µM (inactive) | AC50 [15]: 7.43 µM (active) | EC50 [20]: > 59.6 µM (inactive) | AC50 [17]: 17.3 µM (active)

COc1ccc(/C=C2/SC(c3ccc(C)cc3)=NC2=O)cc1OC
IC50 [21]: > 59.6 µM (inactive) | IC50 [22]: > 59.6 µM (inactive) | EC50 [23]: 742 nM (active)

CC(C)C[C@@H](COc1ccccc1)N1CCN(Cc2ccccc2)CCC1=O
AC50 [11]: 33.5 µM (active)

CN(C)CCCNc1nc2cc(-c3ccc(F)cc3)sc2c(=O)n1C
AC50 [24]: 33.8 µM (active) | AC50 [25]: 7.84 µM (active)

CC(C)NC(=O)Nc1ccc2c(c1)C(=O)N([C@H](C)CO)C[C@H](C)[C@H](CN(C)S(=O)(=O)c1ccc(Cl)cc1)O2
AC50 [26]: 57.4 µM (active)
